The values below come from PMC11774906, “Volume-regulated anion channels conduct ATP in undifferentiated mammary cells and promote tumorigenesis in xenograft nude mouse” (Frontiers in Cell and Developmental Biology, 2025).

The target in this test is T1, volume-regulated anion channels (VRACs); LRRC8A-containing hexamer (Homo sapiens, UniProt Q8IWT6).
T1 construct: native channel in intact MCF10A cells; LRRC8 heterohexamer of undefined subunit composition, LRRC8A essential; A, C, D prominently expressed, B and E minimal
T1 sequence (Q8IWT6 1-810): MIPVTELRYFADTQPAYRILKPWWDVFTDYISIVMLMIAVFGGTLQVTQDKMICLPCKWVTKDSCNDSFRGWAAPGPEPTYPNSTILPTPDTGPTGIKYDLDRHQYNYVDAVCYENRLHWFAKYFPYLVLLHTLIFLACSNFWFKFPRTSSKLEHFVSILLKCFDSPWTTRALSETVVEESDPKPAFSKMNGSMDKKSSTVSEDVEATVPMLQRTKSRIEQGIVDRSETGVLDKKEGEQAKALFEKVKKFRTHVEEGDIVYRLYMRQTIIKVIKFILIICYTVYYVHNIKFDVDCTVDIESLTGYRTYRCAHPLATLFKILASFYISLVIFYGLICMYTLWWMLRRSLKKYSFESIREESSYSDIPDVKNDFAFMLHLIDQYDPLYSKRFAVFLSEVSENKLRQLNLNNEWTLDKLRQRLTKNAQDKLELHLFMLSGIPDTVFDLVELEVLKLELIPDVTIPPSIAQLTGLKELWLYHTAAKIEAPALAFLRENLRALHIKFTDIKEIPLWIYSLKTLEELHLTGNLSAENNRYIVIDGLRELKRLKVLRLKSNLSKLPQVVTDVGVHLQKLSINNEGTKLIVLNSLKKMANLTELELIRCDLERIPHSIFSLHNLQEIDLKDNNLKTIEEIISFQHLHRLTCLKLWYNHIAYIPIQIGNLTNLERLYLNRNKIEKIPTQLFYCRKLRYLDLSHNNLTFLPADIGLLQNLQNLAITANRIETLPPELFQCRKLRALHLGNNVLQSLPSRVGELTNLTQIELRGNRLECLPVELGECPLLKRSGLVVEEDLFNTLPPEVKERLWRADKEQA
T1 sequence (Q8TDW0 1-803 partner): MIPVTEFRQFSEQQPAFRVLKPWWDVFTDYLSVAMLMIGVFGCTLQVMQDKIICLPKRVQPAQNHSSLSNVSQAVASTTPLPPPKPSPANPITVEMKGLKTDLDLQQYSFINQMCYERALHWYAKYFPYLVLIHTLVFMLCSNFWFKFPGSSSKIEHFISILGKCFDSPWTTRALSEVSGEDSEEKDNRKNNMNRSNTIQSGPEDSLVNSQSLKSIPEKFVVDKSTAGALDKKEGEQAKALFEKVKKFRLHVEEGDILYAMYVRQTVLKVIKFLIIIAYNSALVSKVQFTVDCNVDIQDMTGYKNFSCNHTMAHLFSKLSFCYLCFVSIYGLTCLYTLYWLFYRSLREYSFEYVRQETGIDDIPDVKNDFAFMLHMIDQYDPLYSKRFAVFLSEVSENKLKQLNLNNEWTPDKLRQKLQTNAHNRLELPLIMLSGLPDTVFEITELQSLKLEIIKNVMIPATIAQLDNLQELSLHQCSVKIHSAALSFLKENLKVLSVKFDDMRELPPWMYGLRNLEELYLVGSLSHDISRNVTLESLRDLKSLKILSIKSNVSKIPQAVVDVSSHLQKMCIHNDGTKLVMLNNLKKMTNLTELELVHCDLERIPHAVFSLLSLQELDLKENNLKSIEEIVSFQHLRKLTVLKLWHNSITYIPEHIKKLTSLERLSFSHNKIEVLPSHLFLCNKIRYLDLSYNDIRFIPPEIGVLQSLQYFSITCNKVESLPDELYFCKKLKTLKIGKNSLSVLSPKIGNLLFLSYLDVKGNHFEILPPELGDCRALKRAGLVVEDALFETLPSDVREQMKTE
T1 sequence (Q7L1W4 1-858 partner): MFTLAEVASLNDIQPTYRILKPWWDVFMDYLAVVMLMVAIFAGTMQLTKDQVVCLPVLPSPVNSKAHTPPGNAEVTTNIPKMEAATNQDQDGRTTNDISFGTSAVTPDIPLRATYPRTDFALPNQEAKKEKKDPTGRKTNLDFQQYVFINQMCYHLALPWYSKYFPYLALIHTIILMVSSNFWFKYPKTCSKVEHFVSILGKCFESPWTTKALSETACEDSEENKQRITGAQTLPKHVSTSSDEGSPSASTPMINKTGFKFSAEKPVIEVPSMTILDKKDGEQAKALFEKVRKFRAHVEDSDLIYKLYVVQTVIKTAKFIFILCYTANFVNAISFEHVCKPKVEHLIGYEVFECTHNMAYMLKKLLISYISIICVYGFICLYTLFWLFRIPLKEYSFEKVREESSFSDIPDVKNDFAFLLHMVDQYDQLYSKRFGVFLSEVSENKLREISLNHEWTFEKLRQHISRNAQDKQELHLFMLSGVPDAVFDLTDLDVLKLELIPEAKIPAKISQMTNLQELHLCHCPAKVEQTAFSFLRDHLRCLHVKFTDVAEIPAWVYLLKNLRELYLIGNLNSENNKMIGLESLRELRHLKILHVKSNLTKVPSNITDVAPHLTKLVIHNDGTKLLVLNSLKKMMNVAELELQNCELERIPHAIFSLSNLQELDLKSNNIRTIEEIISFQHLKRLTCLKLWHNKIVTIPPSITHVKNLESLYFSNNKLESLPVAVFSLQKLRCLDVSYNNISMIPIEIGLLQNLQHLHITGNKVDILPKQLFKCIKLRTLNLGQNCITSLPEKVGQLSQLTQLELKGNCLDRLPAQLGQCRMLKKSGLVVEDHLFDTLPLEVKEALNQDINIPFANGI
Kind of test: luciferin-luciferase imaging of hypotonic diffuse ATP release in MCF10A cells. It counts as cell-based. The following applies: 50% hypotonic stress; pH 7.4, 30 °C; decay of ATP signal after DCPIB, exponential fit; indirect read-out (ATP release).

Regarding `CCCCC1(C2CCCC2)Cc2cc(OCCCC(=O)O)c(Cl)c(Cl)c2C1=O` (stereo not shown) [DCPIB, 4-[(2-Butyl-6,7-dichloro-2-cyclopentyl-2,3-dihydro-1-oxo-1H-inden-5-yl)oxy] butanoic acid], the IC50 is 38.5 µM.

A word on the IC50: it is the concentration needed to halve the response being measured.
